Converted amounts (≈) assume the structure as drawn. Like-named read-outs stand apart in the source and are kept apart here.
Tests used:
[1] = tested on: Streptomyces coelicolor M600; assay: MIC on Difco Nutrient Agar with sub-lethal indolmycin, strain M600 (wild-type); assay type: cell-based; settings: for MIC: Streptomyces coelicolor, M600, 48 h, 30° C., 48 hours
Method: (§1) Changes in the susceptibility of S. coelicolor to three clinically used antibacterial drugs (chloramphenicol, erythromycin, and vancomycin) grown in the presence of indolmycin were assessed. The effects of antibiotic combinations were assessed in wild-type S. coelicolor, which has an auxiliary, indolmycin-resistant isoform of tryptophanyl-tRNA synthetase (TrpRS1). We also examined these combinations in three other indolmycin-resistant strains of S. coelicolor—a trpRS2 null strain (B728) (8) and two strains lacking trpRS1 with resistance conferring point mutations in trpRS2 (B734 with TrpRS2 H48N and B735 with TrpRS2 H48Q) (9). These strains were selected because the strong antibacterial activity of indolmycin precluded testing of this hypothesis in the indolmycin-sensitive trpRS1 null strain of S. coelicolor. The effects were measured in terms of changes in the chloramphenicol, erythromycin, and vancomycin MICs of the four strains over a range of sub-lethal indolmycin concentrations.
(§2) Streptomyces coelicolor strains were grown on DIFCO Nutrient Agar supplemented with indolmycin (0-100 μg/mL) and one of the following antibacterial agents: chloramphenicol (10-80 μg /mL), erythromycin (1-110 μg/mL), and vancomycin (30-140 μg/mL). The strains were grown on the media at 30° C. for 48 hours, after which point growth was assessed visually.
(§3) A 50 mg/mL (active enantiomer) stock solution of indolmycin was prepared by dissolving the indolmycin in DMSO. The concentrations of each stock solution reflect the actual concentration of the pharmacologically active substance. Aliquots of the stock solutions were added directly to molten, sterile DIFCO Nutrient Agar prior to solidification. Streptomyces coelicolor spores were directly spread onto the surface of each DNA plate and the plates were incubated at 30° C. for about 48 hours. Growth was assessed visually after the incubation period. Minimal inhibitory concentrations (MICs) reflect the drug concentrations at which no Streptomyces coelicolor growth was observed.
(§4) All Streptomyces strains were grown on Difco Nutrient Agar at 30° C. The MICs were assessed after 48 hours.

[2] = tested on: Streptomyces coelicolor B728; assay: MIC on Difco Nutrient Agar with sub-lethal indolmycin, strain B728 (trpRS2 null); assay type: cell-based
Method: as §1, §2, §3, §4

[3] = tested on: S. coelicolor; assay: Indolmycin MIC against S. coelicolor; assay type: cell-based, Streptomyces coelicolor; settings: indolmycin alone
[4] = tested on: methicillin-resistant Staphylococcus aureus; settings: cited from earlier work
[5] = tested on: Helicobacter pylori; settings: cited from earlier work
[6] = molecular target: tryptophanyl-tRNA synthetase (TrpRS1) (Streptomyces coelicolor, UniProt Q8CJX0); settings: TrpRS1 of S. coelicolor, reference (19), cited from earlier work
Sequence of tryptophanyl-tRNA synthetase (TrpRS1) (Q8CJX0 whole entry): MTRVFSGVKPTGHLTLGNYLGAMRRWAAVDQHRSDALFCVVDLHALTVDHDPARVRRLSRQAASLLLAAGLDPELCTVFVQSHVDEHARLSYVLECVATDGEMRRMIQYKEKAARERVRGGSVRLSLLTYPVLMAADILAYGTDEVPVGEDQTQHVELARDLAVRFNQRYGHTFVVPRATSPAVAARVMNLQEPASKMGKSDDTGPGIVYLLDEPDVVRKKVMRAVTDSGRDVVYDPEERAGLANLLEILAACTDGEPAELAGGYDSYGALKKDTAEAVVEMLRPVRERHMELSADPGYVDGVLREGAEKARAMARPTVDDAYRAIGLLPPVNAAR

[7] = strain M600, 0 μg/ml Indolmycin, read-out: MIC
[8] = strain M600, 10 μg/ml Indolmycin, read-out: MIC
[9] = strain M600, 25 μg/ml Indolmycin, read-out: MIC
[10] = strain M600, 50 μg/ml Indolmycin, read-out: MIC
[11] = strain M600, 75 μg/ml Indolmycin, read-out: MIC
[12] = strain M600, 100 μg/ml Indolmycin, read-out: MIC
[13] = Streptomyces coelicolor, B728, 48 h, strain B728, 0 μg/ml Indolmycin, 30° C., 48 hours
[14] = Streptomyces coelicolor, B728, 48 h, strain B728, 10 μg/ml Indolmycin, 30° C., 48 hours
[15] = Streptomyces coelicolor, B728, 48 h, strain B728, 25 μg/ml Indolmycin, 30° C., 48 hours
[16] = Streptomyces coelicolor, B728, 48 h, strain B728, 50 μg/ml Indolmycin, 30° C., 48 hours
[17] = Streptomyces coelicolor, B728, 48 h, strain B728, 75 μg/ml Indolmycin, 30° C., 48 hours
[18] = Streptomyces coelicolor, B728, 48 h, strain B728, 100 μg/ml Indolmycin, 30° C., 48 hours

Question: Which results are given for `O=C(N[C@H](CO)[C@H](O)c1ccc([N+](=O)[O-])cc1)C(Cl)Cl` [Chloramphenicol, chloramphenicol]?
Answer: MIC [1, 7]: 80 µg/mL; MIC [1, 8]: 35 µg/mL; MIC [1, 9]: 25 µg/mL; MIC [1, 10]: 20 µg/mL; MIC [1, 11]: 15 µg/mL; MIC [1, 12]: 10 µg/mL; MIC was reduced ([1]; wild-type S. coelicolor, media supplemented with indolmycin): 10 fold; MIC [2, 13]: 60 µg/mL; MIC [2, 14]: 40 µg/mL; MIC [2, 15]: 30 µg/mL; MIC [2, 16]: 30 µg/mL; MIC [2, 17]: 20 µg/mL; MIC [2, 18]: 20 µg/mL

Question: With `CN=C1NC(=O)[C@H]([C@H](C)c2c[nH]c3ccccc23)O1` [indolmycin] as the compound, how does the MIC [3] read?
Answer: The MIC was over 500 µg/mL.

Question: And the MIC [4]?
Answer: The MIC was 0.5 µg/mL (≈ 1.94 µM).

Question: And the MIC [5]?
Answer: Its MIC is 0.016 µg/mL (≈ 0.0622 µM).

Question: And the Ki [6]?
Answer: Its Ki is 900 nM.

Question: What about the Ki ([6]; listed as Indolmycin) of the same compound?
Answer: The Ki was about 900 nM.

Question: Which MIC [1, 7] does the source give for `CC[C@H]1OC(=O)[C@H](C)[C@@H](O[C@H]2C[C@@](C)(OC)[C@@H](O)[C@H](C)O2)[C@H](C)[C@@H](O[C@@H]2O[C@H](C)C[C@H](N(C)C)[C@H]2O)[C@](C)(O)C[C@@H](C)C(=O)[C@H](C)[C@@H](O)[C@]1(C)O` [Erythromycin, erythromycin] here?
Answer: The MIC was 110 µg/mL.

Question: What about the MIC [1, 8] of the same compound?
Answer: The MIC was 40 µg/mL.

Question: What about the MIC [1, 9] of the same compound?
Answer: The MIC was 30 µg/mL.

Question: What about the MIC [1, 10] of the same compound?
Answer: Its MIC is 15 µg/mL.

Question: And the MIC [1, 11]?
Answer: Its MIC is 10 µg/mL.

Question: And the MIC [1, 12]?
Answer: The MIC was 5 µg/mL.

Question: What about the MIC [2, 13] of the same compound?
Answer: Its MIC is 70 µg/mL.

Question: What about the MIC [2, 14] of the same compound?
Answer: Its MIC is 50 µg/mL.

Question: And the MIC [2, 15]?
Answer: The MIC was 30 µg/mL.

Question: What about the MIC [2, 16] of the same compound?
Answer: Its MIC is 20 µg/mL.

Question: What about the MIC [2, 17] of the same compound?
Answer: Its MIC is 10 µg/mL.

Question: What about the MIC [2, 18] of the same compound?
Answer: The MIC was 5 µg/mL.

Question: With `CN[C@H](CC(C)C)C(=O)N[C@H]1C(=O)N[C@@H](CC(N)=O)C(=O)N[C@H]2C(=O)N[C@H]3C(=O)N[C@H](C(=O)N[C@H](C(=O)O)c4cc(O)cc(O)c4-c4cc3ccc4O)[C@H](O)c3ccc(c(Cl)c3)Oc3cc2cc(c3O[C@@H]2O[C@H](CO)[C@@H](O)[C@H](O)[C@H]2O[C@H]2C[C@](C)(N)[C@H](O)[C@H](C)O2)Oc2ccc(cc2Cl)[C@H]1O` [Vancomycin, vancomycin] as the compound, how does the MIC ([1]; strain M600, 0 μg/ml Indolmycin) read?
Answer: Its MIC is 110 µg/mL.

Question: What about the MIC ([1]; strain M600, 10 μg/ml Indolmycin) of the same compound?
Answer: Its MIC is 110 µg/mL.

Question: And the MIC ([1]; strain M600, 25 μg/ml Indolmycin)?
Answer: Its MIC is 110 µg/mL.

Question: And the MIC ([1]; strain M600, 50 μg/ml Indolmycin)?
Answer: The MIC was 110 µg/mL.

Question: And the MIC ([1]; strain M600, 75 μg/ml Indolmycin)?
Answer: Its MIC is 110 µg/mL.

Question: And the MIC ([1]; strain M600, 100 μg/ml Indolmycin)?
Answer: The MIC was 70 µg/mL.

Question: What about the “more sensitive in the presence of indolmycin” value ([1]; strain M600, about 100 μg/mL indolmycin) of the same compound?
Answer: The value was 1.6 times.

Question: And the MIC ([2]; Streptomyces coelicolor, B728, 48 h)?
Answer: The MIC was 130 µg/mL.

Question: And the MIC ([2]; strain B728, 10 μg/ml Indolmycin, 30° C., 48 hours)?
Answer: Its MIC is 130 µg/mL.

Question: And the MIC ([2]; strain B728, 25 μg/ml Indolmycin, 30° C., 48 hours)?
Answer: The MIC was 130 µg/mL.

Question: And the MIC ([2]; strain B728, 50 μg/ml Indolmycin, 30° C., 48 hours)?
Answer: The MIC was 130 µg/mL.

Question: And the MIC ([2]; strain B728, 75 μg/ml Indolmycin, 30° C., 48 hours)?
Answer: Its MIC is 130 µg/mL.

Question: And the MIC ([2]; strain B728, 100 μg/ml Indolmycin, 30° C., 48 hours)?
Answer: The MIC was 130 µg/mL.
